# From publication PMC9316000, “Preclinical Drug Pharmacokinetic, Tissue Distribution and Excretion Profiles of the Novel Limonin Derivate HY-071085 as an Anti-Inflammatory and Analgesic Candidate in Rats and Beagle Dogs” (Pharmaceuticals, 2022)
# “Also recorded” adds a separate entry of the source.
# Test: Excretion in feces, urine and bile (material balance) in rats
# Format: in vivo, Sprague Dawley rats
# Method: After the single-dose intragastric administration of HY-071085 (6.5 mg/kg) to male and female rats, their feces, urine and bile were collected at various time points within 24 h in order to analyze the excretion of HY-071085. The amount of unchanged parent compound recovered from the feces, urine and bile was negligible in rats (about 1.3% of the dose, Table 3).
# Excretion in urine and feces (rats): The Sprague Dawley rats were aged approximately 6 weeks old and weighed 185–212 g at the onset of treatment. Urine and fecal samples were collected for the excretion study using metabolic cages. After the oral administration of 6.5 mg/kg HY-071085, urine and feces were collected at 0–6, 6–12 and 12–24 h. The urine volumes were recorded and transferred to centrifuge tubes. The fecal weights were recorded at each sampling period, and then those feces were dried, ground and mixed thoroughly. Then, 0.1 g feces was accurately weighed, mixed with 1 mL deionized water, and homogenized to be used as a fecal sample. All of the samples were stored at –80 °C until the analysis.
# Excretion in bile (rats): The Sprague Dawley rats were approximately 6 weeks old and weighed 174–215 g at the onset of treatment. The rats were anesthetized with diethyl ether, and the bile duct was then cannulated for bile collection. After allowing recovery from surgery and anesthesia, these bile duct–cannulated rats were administered a single 6.5 mg/kg dose of HY-071085 by gastric gavage.
# [1] = gavage 6.5 mg/kg, within 24 h, % of the dose
compound,measurement,setting,value
"CC1(C)OC2CC(=O)OCC23C1C/C(=N\OCCN1CCOCC1)C1(C)C3CC[C@@]2(C)[C@H](c3ccoc3)OC(=O)C3OC312 (stereo partly drawn) [HY-071085, (12S,12aS,E)-12-(furan-3-yl)-6,6,8a,12a-tetramethyl-8-((2-morpholinoethoxy)imino)dodecahydro-1H,3H-oxireno [2,3-d]pyrano [4’,3’:3,3a]isobenzofuro [5,4-f]isochromene-3,10(9aH)-dione]",route of elimination,excretion and material balance,mainly eliminated as metabolites; also recorded: mainly eliminated by metabolism
same,HY-071085 prototype recovered in bile,"gavage 6.5 mg/kg, bile 0~8 h, % of the dose",0.206 ± 0.206%
same,HY-071085 prototype recovered in feces,[1],0.812 ± 0.611%
same,HY-071085 prototype recovered in urine,[1],0.254 ± 0.164%
